Results taken from PubChem BioAssay AID720512 (Broad Institute, 2013).
The source made the active and inactive calls. No rule for the calls is given here.

Biological target: Toxin B (TcdB) glycohydrolase, Clostridioides difficile 630
Assay: TcdB glycohydrolase inhibitors, dose response, biochemical, cherry-pick, plate reader (AID 720512)
Details: recombinant TcdB glycohydrolase activity

| Compound | activity change, negative = inhibition (at 19.5 µM (top of the series)) | also measured |
| --- | --- | --- |
| Cc1ccc(S(=O)(=O)Oc2ccc(/C=N/NC(=O)c3nn(C)cc3[N+](=O)[O-])cc2)cc1 | inactive | – |
| COc1ccc(C2=NS(=O)(=O)N(C)C(C(=O)NCc3ccc4c(c3)OCO4)=C2)cc1 | inactive | – |
| O=C(C[C@@H]1C[C@H]2c3cc(NC(=O)c4ccc5c(c4)OCO5)ccc3O[C@H]2[C@H](CO)O1)NCc1cccc(F)c1 | inactive | – |
| S=c1[nH]nc(NC2CCCCC2)s1 | inactive | – |
| CC(=O)c1cccc(OCC(=O)c2cc(C)n(-c3cc(C)on3)c2C)c1 | inactive | – |
| COC(=O)C[C@@H]1CC[C@@H]2[C@H](COC[C@H](O)CN2C(=O)Nc2ccccc2OC)O1 | inactive | – |
| COc1ccc2nc(NNC(=O)C3COc4ccccc4O3)sc2c1 (stereo unspecified) | – | AC50: 3.04 µM |
| Cn1cnnc1SCC(=O)NC1CCCCC1 | inactive | – |
| CCN(CC)CCNC(=O)C1CCN(S(=O)(=O)c2c(C)noc2/C=C/c2ccccc2F)CC1 | inactive | – |
| Clc1cccc(-c2ccc3ncnc(NCc4cccs4)c3c2)c1 | inactive | – |
| ON=C1c2ccccc2-c2ccc(O)cc21 | – | AC50: 22 µM |
| O=C1c2c(O)ccc(O)c2C(=O)c2c(NCCNCCO)ccc(NCCNCCO)c21 | – | activity change, negative = inhibition (at 10 µM (top of the series)): inactive |
| CN(C)CCNc1cccc2sc3ccc(O)cc3c(=O)c12 | – | AC50: 12.4 µM |
| Nc1ncc(S(=O)(=O)c2ccc([N+](=O)[O-])cc2)s1 | – | AC50: > 39 µM (inactive) |
| CC1(C)CC(=O)C(C=Nc2ccc(N)cc2)=C(O)C1 | inactive | – |
| CN1C(=O)c2cc(NC(=O)Nc3ccccc3Cl)ccc2OC[C@H]2O[C@@H](CC(=O)NCCCN3CCOCC3)CC[C@H]21 | – | activity change, negative = inhibition (at 21 µM (top of the series)): inactive |
| O=C(C1CCOCC1)N1CC[C@@H]2[C@@H](CO)Nc3ccc(-c4ccc(F)cc4)cc3[C@@H]21 | inactive | – |
| CNC(=O)C[C@H]1CC[C@@H]2[C@H](COc3ccc(NC(=O)c4ccc(OC)cc4)cc3C(=O)N2C)O1 | inactive | – |
| N=C(N)c1ccc(N=Nc2c(O)ccc3c2[nH]c2ccccc23)cc1 | – | AC50: > 39 µM (inactive) |
| C[C@@H]1C=C[C@](Cc2ccccc2)(C(=O)NCC2CC2)N1C(=O)c1ccccc1 | inactive | – |
| CCOc1ccccc1NC(=O)CCNS(=O)(=O)c1cccc2nonc12 | inactive | – |
| COC(=O)C(Cc1ccccc1)NC(=O)CSc1nc(C)cc(=O)[nH]1 (stereo unspecified) | inactive | – |

| Compound | activity change, negative = inhibition (at 19.5 µM (top of the series)) | also measured |
| --- | --- | --- |
| Cc1ccc(SCCC(=O)N/N=C/c2cccnc2)cc1 | inactive | – |
| CNC(=O)C[C@@H]1CC[C@H]2[C@H](COc3ccc(NS(=O)(=O)c4ccccc4C)cc3C(=O)N2C)O1 | inactive | – |
| CN1CCN(CC(=O)Nc2cc(N(C)C)nc3ccccc23)CC1 | inactive | – |
| COc1ccc(Br)cc1C(=O)Nc1ccc(O)cc1 | inactive | – |
| Cc1cc(N2CCCC2=O)cc(C)c1S(=O)(=O)Nc1c(C)nn(C)c1C | inactive | – |
| CC(C)CN1CCN(CC#Cc2ccccc2)CC1CCO (stereo unspecified) | inactive | – |
| CC(C)(C)c1cc(Cl)c(O)c(NC(=S)NC(=O)c2cccnc2)c1 | inactive | – |
| CC(N)C(=O)NC(C(=O)N1CCCC1C(=O)NC(c1ccccc1)c1ccccc1)C(C)C (stereo unspecified) | inactive | – |
| CN(C)c1ccc(Cl)c(NC(N)=S)c1 | inactive | – |
| COc1ccccc1C(=O)Nc1cccc(Oc2c(F)c(F)c(F)c(F)c2F)c1 | inactive | – |
| O=C(O)c1ccc(-c2ccc(O)c(F)c2)cc1 | – | AC50: > 39 µM (inactive) |
| COc1ccc(Cl)cc1NC(=S)NC1CCCC1 | inactive | – |
| COc1ccc(C2=NS(=O)(=O)N(C)C(C(=O)N3CCc4ccccc4C3)=C2)cc1OC | inactive | – |
| CC(C)Cc1[nH]c(=O)c(C#N)c2c1CCCC2 | inactive | – |
| O=C(NCc1cccnc1)c1cc(C2CCCCN2S(=O)(=O)c2cccc3cccnc23)on1 (stereo unspecified) | inactive | – |
| O=C(NC(=S)Nc1ccc(O)cc1)c1cncc(Br)c1 | inactive | – |
| COc1ccc(S(=O)(=O)N2CCC[C@H]2C(=O)N2CCC[C@H]2C(=O)NCc2ccncc2)cc1C | inactive | – |
| COc1cc(/C=C(\C#N)C(=O)Nc2ccc3c(c2)OCCO3)ccc1O | inactive | – |
| O=c1c2ccc(Cl)cc2[nH]c(=S)n1-c1cccnc1 | inactive | – |
| O=c1[nH]nc(-c2cc(-c3ccccc3)nc3ccccc23)o1 | inactive | – |
| CCOC(=O)N1CCC(c2cc(=O)n3[nH]c(-c4ccccc4)cc3n2)CC1 | inactive | – |
| CC(=O)Oc1ccc(/C=N/NC(=O)CCSc2ccccc2)cc1 | – | AC50: > 39 µM (inactive) |

| Compound | activity change, negative = inhibition (at 19.5 µM (top of the series)) | also measured |
| --- | --- | --- |
| O=S(=O)(Oc1ccccc1-c1ccccc1)c1ccccc1 | inactive | – |
| Cc1ccccc1COc1ccc2oc(C)c(C(=O)O)c2c1 | inactive | – |
| C[C@H](CO)N1C[C@H](C)[C@@H](CN(C)C(=O)Nc2ccc(C(F)(F)F)cc2)Oc2c(cccc2N(C)C)C1=O | inactive | – |
| c1ccc(-c2nnc(OCC3CCCO3)c3ccccc23)cc1 (stereo unspecified) | inactive | – |
| CCNC(=O)C[C@H]1CC[C@@H]2[C@@H](COc3ccc(NC(=O)c4ccc5c(c4)OCO5)cc3C(=O)N2C)O1 | – | AC50: > 39 µM (inactive) |
| O=C(NNc1nc2c(F)cccc2s1)C1COc2ccccc2O1 (stereo unspecified) | inactive | – |
| COc1ccc(CNC(=O)c2cc3c(s2)CN(Cc2ccccc2)C3)cc1 | inactive | – |
| Cc1ccc(NNC(=O)c2ccno2)cc1Cl | inactive | – |
| CCOC(=O)C(=O)NNc1ccc(Cl)cc1 | inactive | – |
| CC(=O)Nc1ccc(N(C(=O)c2ccco2)C(C(=O)NC2CCCC2)c2cccs2)cc1 (stereo unspecified) | inactive | – |
| COC(=O)c1sc2nc(SCc3ccccc3C)n(N)c(=O)c2c1C | inactive | – |
| Cc1ccccc1C(C(=O)NC1CCCCC1)N(C(=O)c1ccccn1)c1cccnc1 (stereo unspecified) | inactive | – |
| CC(OC(=O)C1=COCCO1)C(=O)c1ccc(Br)cc1 (stereo unspecified) | inactive | – |
| CCCc1[nH]c(=O)c(C#N)c2c1CCCC2 | inactive | – |
| CC(C)NC(=O)N1CC[C@@H]2[C@H]1c1cc(-c3ccc(F)cc3)ccc1N(C)[C@H]2CO | inactive | – |
| C=CCOc1cccc(CNc2ccc3[nH]c(=O)[nH]c3c2)c1 | inactive | – |
| CCc1[nH]c(=O)c(C#N)c2c1CCCC2 | inactive | – |
| COc1ccc(C(NC(C)=O)c2cc(Cl)c3cccnc3c2O)cc1 (stereo unspecified) | inactive | – |
| CN(C(=O)Cn1c(=O)oc2cc(S(=O)(=O)N3CCCC3)ccc21)C1CCCCC1 | inactive | – |
| COCC(=O)N1CC[C@@H]2[C@H]1c1cc(-c3ccccc3)ccc1N(C)[C@H]2CO | inactive | – |
| Fc1ccccc1Nc1n[nH]c(=S)s1 | inactive | – |
| O=C(c1ccccc1F)N1CCN(c2ccc([N+](=O)[O-])c3cccnc23)CC1 | inactive | – |
